Test results from patent EP2402020B1, “Pharmaceutical composition comprising extracts of Bupleurum krylovianum for use in the treatment of arthritis and rheumatoid arthritis” (Industrial Technology Research Institute, priority 2010, dated 2012).
Converted amounts (≈) assume the structure as drawn.

How the values were obtained:
[1] = system: TNF-α; experiment: TNBS enteritis mouse model: TNF-α in colon infusion; type: in vivo, BABL/c mice; details: 0.6mg/kg fed + 1.75mg of TNBS into the colon; colon infusion after 48 hours; negative value = enhanced excretion
Text: (§1) The BABL/c mice were categorized into 4 groups. Each group had 6 […].

[2] = system: IL-6; experiment: TNBS enteritis mouse model: IL-6 in colon infusion; type: in vivo, BABL/c mice; details: 0.6mg/kg fed + 1.75mg of TNBS into the colon; colon infusion after 48 hours; negative value = enhanced excretion
Text: as §1

[3] = system: carrageenan induced hindpaw edema; experiment: Carrageenan induced hindpaw edema in a rat model (plethysmometer); type: in vivo, Long-Evan rats; details: 3 mg/kg fed 1 hour before carrageenan (positive control)
Experimental: Long-Evan rats were fed with the extract (a) in Example 5 (i) in an amount of 250mg/kg, 500 mg/kg, 1000mg/kg, respectively. The positive control was fed with 3mg/kg of indomethacin (NSAID). The negative control was fed with 10ml/kg of 2% Tween 80 as a carrier After 1 hour, the rats were injected 0.1ml of 1% carrageenan on the left hindpaw. The volume of the rat's left hindpaw was measured by plethysmometer (Stoelting) at the 0, 1.5th, and 3rd hour after injection. The inhibition was calculated by the formula :
Inhibition (%)=(Nt-Nv)/Nv × 100
In the formula, Nt represents the left hindpaw volume of the rat fed with the ethanol extract; Nv represents the left hindpaw of the rat fed with the carrier.

[4] = system: TNF-α; experiment: TNF-α excretion by LPS-stimulated, PMA-activated U937 cells (ELISA); type: cell-based, human; details: activated U937, 30 minutes preincubation, LPS stimulation 4 hours, supernatant ELISA
Experimental: The cell line, U937 (human monocyte cell line), was incubated in RPMI medium containing 50 ng/ml PMA (phorbol 12-myristate 13-acetate) (Sigma) and 10% fetal bovine serum (Moor et. al., Roswell Park Memorial Institute) for 24 hours. The cell line was then moved to the RPMI medium without PMA for further 48 hours. The activated U937 was seeded into a 96-well plate in a concentration of 1.6×10^5 cell/well. The wells were added 12.5 µg/ml, 25 µg/ml, 50 µg/ml and 100 µg/ml of kaerophyllin and 1 µg/ml, 3 µg/ml, 10 µg/ml and 30 µg/ml of isokaerphyllin and 10 µl of buffer, respectively. Each well was adjusted to a final volume of 190 µl. The plate was reacted under 37°C for 30 minutes. Each well was added 10 µl of 20 µg/ml LPS to stimulate cells. After 4 hours under 37°C, the plate was centrifuged to collect the supernatants.
The amount of TNF-α in the supernatant was measured by ELISA (R&D System®) based on the control (DMSO). Meanwhile, the cell viability was measured by MTT assay (Sigma).

[5] = system: IL-6; experiment: IL-6 excretion by LPS-stimulated, PMA-activated U937 cells (ELISA); type: cell-based, human; details: activated U937, 30 minutes preincubation, LPS stimulation 16-18 hours, supernatant ELISA
Experimental: The cell line, U937, was cultured like Example 13. The activated U937 was /s then seeded in a 96-well plate in a concentration of 1.6×10^5 cell/well. The wells were added 6.3 µg/ml, […], 25 µg/ml and 50 µg/ml of kaerophyllin and 3.8 µg/ml, 7.5 µg/ml, 15 µg/ml and 30 µg/ml of isokaerphyllin and 10 µl of buffer, respectively. Each well was adjusted to a final volume of 190 µl. The plate was put under 37°C for 30 minutes. Each well was added 10µl of 20 µg/ml LPS to stimulate cells. After 16-18 hours under 37°C, the plate was centrifuged to collect the supernatants.
The amount of IL-6 in the supernatant was measured by ELISA (R&D System®) based on the control (DMSO). Meanwhile, the cell viability was measured by MTT assay (Sigma).

## C[C@@H]1C[C@H]2[C@@H]3CCC4=CC(=O)C=C[C@]4(C)[C@@]3(F)[C@@H](O)C[C@]2(C)[C@@]1(O)C(=O)CO [DEX, dexamethasone]
[1]
  Inhibition of TNF-α(%): 9%
[2]
  Inhibition of IL-6 (%): -55%

## COc1ccc2c(c1)c(CC(=O)O)c(C)n2C(=O)c1ccc(Cl)cc1 [indomethacin]
[3]; left hindpaw volume at 0 hour
  Inhibition at 0 hour (%): 0%
[3]; left hindpaw volume at 1.5th hour
  Inhibition at the 1.5th hour (%): 21%
[3]; left hindpaw volume at 3rd hour
  Inhibition at the 3rd hour (%): 52%

## COc1ccc(/C=C2/C(=O)OC[C@@H]2Cc2ccc3c(c2)OCO3)cc1OC [kaerophyllin, trans-(3,4-dimethoxybenzylidene)-β-(3,4-methylenedioxylbenzyl)-γ-butyrolactone]
[4]; Homo sapiens, U-937, read-out: IC50 value (inhibition of the excretion of TNF-α)
  IC50: 44 ± 5 mg/L (≈ 119 µM)
[5]; Homo sapiens, U-937, read-out: IC50 value (inhibition of the excretion of IL-6)
  IC50: 13 ± 2 mg/L (≈ 35.3 µM)

## cis-(3,4-dimethoxybenzylidene)-β-(3,4-methylenedioxylbenzyl)-γ-butyrolactone [isokaerophyllin]
[4]
  IC50 value (inhibition of the excretion of TNF-α): 18 ± 4 mg/L
[5]
  IC50 value (inhibition of the excretion of IL-6): 24 ± 6 mg/L
